Source: ChEMBL document CHEMBL3102798, “Stapled Vasoactive Intestinal Peptide (VIP) Derivatives Improve VPAC2 Agonism and Glucose-Dependent Insulin Secretion” (ACS Med Chem Lett, 2013)
pEC50: −log10 of the molar value. Numbered stars: 1 amine (or outer) side, 2 acyl side, 3 side chain; on linkers, the order of the positions; unused ones are H or OH. Bridge positions count the residues as written; N and C are the ends. Square brackets hold non-standard residues; d marks the D form. Peptide text beside a SMILES is read from it. X1 = C[C@@](CCCCC=[*:3])(N[*:1])C(=O)[*:2]; S5 = C=CCCC[C@](C)(N)C(=O)O

Tests used:
[1] = biological target: T1, Vasoactive intestinal polypeptide receptor 2 (Homo sapiens, UniProt P41587); experiment: Agonist activity at human VPAC2 expressed in CHO Flp-in cells assessed as accumulation of cAMP after 30 mins by TR-FRET assay; type: functional, cell-based
T1 sequence (P41587 whole entry): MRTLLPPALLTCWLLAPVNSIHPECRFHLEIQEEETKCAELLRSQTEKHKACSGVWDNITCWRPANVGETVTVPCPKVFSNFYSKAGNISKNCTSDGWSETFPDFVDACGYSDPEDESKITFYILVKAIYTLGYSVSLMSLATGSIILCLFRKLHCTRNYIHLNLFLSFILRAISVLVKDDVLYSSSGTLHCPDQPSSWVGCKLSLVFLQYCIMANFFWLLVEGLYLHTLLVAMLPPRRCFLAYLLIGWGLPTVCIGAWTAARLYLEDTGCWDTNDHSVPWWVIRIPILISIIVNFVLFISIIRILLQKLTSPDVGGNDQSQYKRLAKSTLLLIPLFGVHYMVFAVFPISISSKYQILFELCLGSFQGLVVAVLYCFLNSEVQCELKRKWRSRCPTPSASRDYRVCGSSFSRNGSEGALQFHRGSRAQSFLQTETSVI

[2] = Stability of the compound in phosphate buffer assessed as compound remaining at pH 7.4 after 15 mins by LC-MS-MS analysis in presence of trypsin; type: ADME; details: phosphate buffer with trypsin, read-out: Stability
[3] = Apparent passive permeability across apical to basolateral side in human Caco2 cells at 10 uM after 30 to 60 mins by LC/MS analysis; type: ADME, cell-based; details: Caco-2

C=CCCC[C@](C)(NC(=O)[C@H](CCC(N)=O)NC(=O)[C@H](CCCCN)NC(=O)[C@H](CCCN=C(N)N)NC(=O)[C@](C)(CCCC=C)NC(=O)[C@H](CCCN=C(N)N)NC(=O)[C@@H](NC(=O)[C@H](Cc1ccc(O)cc1)NC(=O)[C@H](CC(N)=O)NC(=O)[C@H](CC(=O)O)NC(=O)[C@@H](NC(=O)[C@H](Cc1ccccc1)NC(=O)[C@@H](NC(=O)[C@H](C)NC(=O)[C@H](CC(=O)O)NC(=O)[C@H](CO)NC(=O)[C@@H](N)Cc1cnc[nH]1)C(C)C)[C@@H](C)O)[C@@H](C)O)C(=O)N[C@@H](C)C(=O)N[C@H](C(=O)N[C@@H](CCCCN)C(=O)N[C@@H](CCCCN)C(=O)N[C@@H](Cc1ccc(O)cc1)C(=O)N[C@@H](CC(C)C)C(=O)N[C@@H](CC(N)=O)C(=O)N[C@@H](CO)C(=O)N[C@H](C(=O)N[C@@H](CC(C)C)C(=O)N[C@@H](CC(N)=O)C(=O)NCC(=O)N[C@@H](CCCCN)C(=O)O)[C@@H](C)CC)C(C)C
pEC50 [1]: 8.86 | remaining at 0.25 h [2]: 0.7% | Papp A→B at 10 µM [3]: < 0.1 ×10⁻⁶ cm/s

CC[C@H](C)[C@H](NC(=O)[C@H](CO)NC(=O)[C@H](CC(N)=O)NC(=O)[C@H](CC(C)C)NC(=O)[C@H](Cc1ccc(O)cc1)NC(=O)[C@H](CCCCN)NC(=O)[C@H](CCCCN)NC(=O)[C@@H](NC(=O)[C@H](C)NC(=O)[C@@H]1CCCCNC(=O)CC[C@H](NC(=O)[C@H](CCCN=C(N)N)NC(=O)[C@@H](NC(=O)[C@H](Cc2ccc(O)cc2)NC(=O)[C@H](CC(N)=O)NC(=O)[C@H](CC(=O)O)NC(=O)[C@@H](NC(=O)[C@H](Cc2ccccc2)NC(=O)[C@@H](NC(=O)[C@H](C)NC(=O)[C@H](CC(=O)O)NC(=O)[C@H](CO)NC(=O)[C@@H](N)Cc2cnc[nH]2)C(C)C)[C@@H](C)O)[C@@H](C)O)C(=O)N[C@@H](CCCN=C(N)N)C(=O)N[C@@H](CCCCN)C(=O)N[C@@H](CCC(N)=O)C(=O)N1)C(C)C)C(=O)N[C@@H](CC(C)C)C(=O)N[C@@H](CC(N)=O)C(=O)NCC(=O)N[C@@H](CCCCN)C(=O)O (H-HSDAVFTDNYTRERKQKAVKKYLNSILNGK-OH; lactam 13-17)
pEC50 [1]: 8.94

CC[C@H](C)[C@H](NC(=O)[C@H](CCC(N)=O)NC(=O)[C@H](CCCCN)NC(=O)[C@H](CCCNC(=N)N)NC(=O)[C@H](CC(C)C)NC(=O)[C@H](CCCNC(=N)N)NC(=O)[C@@H](NC(=O)[C@H](Cc1ccc(O)cc1)NC(=O)[C@H](CC(N)=O)NC(=O)[C@H](CC(=O)O)NC(=O)[C@@H](NC(=O)[C@H](Cc1ccccc1)NC(=O)[C@@H](NC(=O)[C@H](C)NC(=O)[C@H](CC(=O)O)NC(=O)[C@H](CO)NC(=O)[C@@H](N)Cc1cnc[nH]1)C(C)C)[C@@H](C)O)[C@@H](C)O)C(=O)N[C@@H](C)C(=O)N[C@H](C(=O)N[C@@H](CCCCN)C(=O)N[C@H]1CCC(=O)NCCCC[C@@H](C(=O)N[C@H](C(=O)N[C@@H](CC(C)C)C(=O)N[C@@H](CC(N)=O)C(=O)NCC(=O)N[C@@H](CCCCN)C(=O)O)[C@@H](C)CC)NC(=O)[C@H](CC(N)=O)NC(=O)[C@H](CC(C)C)NC(=O)[C@H](Cc2ccc(O)cc2)NC1=O)C(C)C (H-HSDAVFTDNYTRLRKQIAVKEYLNKILNGK-OH; lactam 21-25)
pEC50 [1]: 9.96

C=CCCC[C@](C)(NC(=O)[C@H](CC(C)C)NC(=O)[C@@H](NC(=O)[C@H](CO)NC(=O)[C@](C)(CCCC=C)NC(=O)[C@H](CC(C)C)NC(=O)[C@H](Cc1ccc(O)cc1)NC(=O)[C@H](CCCCN)NC(=O)[C@H](CCCCN)NC(=O)[C@@H](NC(=O)[C@H](C)NC(=O)[C@@H](NC(=O)[C@H](CCC(N)=O)NC(=O)[C@H](CCCCN)NC(=O)[C@H](CCCNC(=N)N)NC(=O)[C@H](CC(C)C)NC(=O)[C@H](CCCNC(=N)N)NC(=O)[C@@H](NC(=O)[C@H](Cc1ccc(O)cc1)NC(=O)[C@H](CC(N)=O)NC(=O)[C@H](CC(=O)O)NC(=O)[C@@H](NC(=O)[C@H](Cc1ccccc1)NC(=O)[C@@H](NC(=O)[C@H](C)NC(=O)[C@H](CC(=O)O)NC(=O)[C@H](CO)NC(=O)[C@@H](N)Cc1cnc[nH]1)C(C)C)[C@@H](C)O)[C@@H](C)O)[C@@H](C)CC)C(C)C)[C@@H](C)CC)C(=O)NCC(=O)N[C@@H](CCCCN)C(=O)O (H-HSDAVFTDNYTRLRKQIAVKKYL[S5]SIL[S5]GK-OH)
pEC50 [1]: 9.68

CC[C@H](C)[C@H](NC(=O)[C@H](CCC(N)=O)NC(=O)[C@H](CCCCN)NC(=O)[C@H](CCCNC(=N)N)NC(=O)[C@H](CC(C)C)NC(=O)[C@H](CCCNC(=N)N)NC(=O)[C@@H](NC(=O)[C@H](Cc1ccc(O)cc1)NC(=O)[C@H](CC(N)=O)NC(=O)[C@H](CC(=O)O)NC(=O)[C@@H](NC(=O)[C@H](Cc1ccccc1)NC(=O)[C@@H](NC(=O)[C@H](C)NC(=O)[C@H](CC(=O)O)NC(=O)[C@H](CO)NC(=O)[C@@H](N)Cc1cnc[nH]1)C(C)C)[C@@H](C)O)[C@@H](C)O)C(=O)N[C@@H](C)C(=O)N[C@H](C(=O)N[C@@H](CCCCN)C(=O)N[C@@H](CCCCN)C(=O)N[C@@H](Cc1ccc(O)cc1)C(=O)N[C@@H](CC(C)C)C(=O)N[C@@]1(C)CCCC/C=C\CCCC[C@@](C)(C(=O)NCC(=O)N[C@@H](CCCCN)C(=O)O)NC(=O)[C@H](CC(C)C)NC(=O)[C@H]([C@@H](C)CC)NC(=O)[C@H](CO)NC1=O)C(C)C (H-HSDAVFTDNYTRLRKQIAVKKYL[X1]SIL[X1]GK-OH; staple (Z) 24-28)
pEC50 [1]: 9.41

C=CCCC[C@](C)(NC(=O)[C@H](CCCCN)NC(=O)[C@@H](NC(=O)[C@H](C)NC(=O)[C@@H](NC(=O)[C@H](CCC(N)=O)NC(=O)[C@H](CCCCN)NC(=O)[C@H](CCCN=C(N)N)NC(=O)[C@H](CC(C)C)NC(=O)[C@H](CCCN=C(N)N)NC(=O)[C@@H](NC(=O)[C@H](Cc1ccc(O)cc1)NC(=O)[C@H](CC(N)=O)NC(=O)[C@H](CC(=O)O)NC(=O)[C@@H](NC(=O)[C@H](Cc1ccccc1)NC(=O)[C@@H](NC(=O)[C@H](C)NC(=O)[C@H](CC(=O)O)NC(=O)[C@H](CO)NC(=O)[C@@H](N)Cc1cnc[nH]1)C(C)C)[C@@H](C)O)[C@@H](C)O)[C@@H](C)CC)C(C)C)C(=O)N[C@@H](Cc1ccc(O)cc1)C(=O)N[C@@H](CC(C)C)C(=O)N[C@@H](CC(N)=O)C(=O)N[C@@](C)(CCCC=C)C(=O)N[C@H](C(=O)N[C@@H](CC(C)C)C(=O)N[C@@H](CC(N)=O)C(=O)NCC(=O)N[C@@H](CCCCN)C(=O)O)[C@@H](C)CC (H-HSDAVFTDNYTRLRKQIAVK[S5]YLN[S5]ILNGK-OH)
pEC50 [1]: 8.42

CC[C@H](C)[C@H](NC(=O)[C@H](CCC(N)=O)NC(=O)[C@H](CCCCN)NC(=O)[C@H](CCCNC(=N)N)NC(=O)[C@H](CC(C)C)NC(=O)[C@H](CCCNC(=N)N)NC(=O)[C@@H](NC(=O)[C@H](Cc1ccc(O)cc1)NC(=O)[C@H](CC(N)=O)NC(=O)[C@H](CC(=O)O)NC(=O)[C@@H](NC(=O)[C@H](Cc1ccccc1)NC(=O)[C@@H](NC(=O)[C@H](C)NC(=O)[C@H](CC(=O)O)NC(=O)[C@H](CO)NC(=O)[C@@H](N)Cc1cnc[nH]1)C(C)C)[C@@H](C)O)[C@@H](C)O)C(=O)N[C@@H](C)C(=O)N[C@H](C(=O)N[C@@H](CCCCN)C(=O)N[C@@]1(C)CCCC/C=C\CCCC[C@@](C)(C(=O)N[C@H](C(=O)N[C@@H](CC(C)C)C(=O)N[C@@H](CC(N)=O)C(=O)NCC(=O)N[C@@H](CCCCN)C(=O)O)[C@@H](C)CC)NC(=O)[C@H](CC(N)=O)NC(=O)[C@H](CC(C)C)NC(=O)[C@H](Cc2ccc(O)cc2)NC1=O)C(C)C (H-HSDAVFTDNYTRLRKQIAVK[X1]YLN[X1]ILNGK-OH; staple (Z) 21-25)
pEC50 [1]: 8.82

C=CCCC[C@](C)(NC(=O)[C@H](CCC(N)=O)NC(=O)[C@H](CCCCN)NC(=O)[C@H](CCCN=C(N)N)NC(=O)[C@H](CC(C)C)NC(=O)[C@H](CCCN=C(N)N)NC(=O)[C@@H](NC(=O)[C@H](Cc1ccc(O)cc1)NC(=O)[C@H](CC(N)=O)NC(=O)[C@H](CC(=O)O)NC(=O)[C@@H](NC(=O)[C@H](Cc1ccccc1)NC(=O)[C@@H](NC(=O)[C@H](C)NC(=O)[C@H](CC(=O)O)NC(=O)[C@H](CO)NC(=O)[C@@H](N)Cc1cnc[nH]1)C(C)C)[C@@H](C)O)[C@@H](C)O)C(=O)N[C@@H](C)C(=O)N[C@H](C(=O)N[C@@H](CCCCN)C(=O)N[C@@](C)(CCCC=C)C(=O)N[C@@H](Cc1ccc(O)cc1)C(=O)N[C@@H](CC(C)C)C(=O)N[C@@H](CC(N)=O)C(=O)N[C@@H](CO)C(=O)N[C@H](C(=O)N[C@@H](CC(C)C)C(=O)N[C@@H](CC(N)=O)C(=O)NCC(=O)N[C@@H](CCCCN)C(=O)O)[C@@H](C)CC)C(C)C (H-HSDAVFTDNYTRLRKQ[S5]AVK[S5]YLNSILNGK-OH)
pEC50 [1]: 8.83

CC[C@H](C)[C@H](NC(=O)[C@H](CO)NC(=O)[C@H](CC(N)=O)NC(=O)[C@H](CC(C)C)NC(=O)[C@H](Cc1ccc(O)cc1)NC(=O)[C@]1(C)CCCC/C=C\CCCC[C@](C)(NC(=O)[C@H](CCC(N)=O)NC(=O)[C@H](CCCCN)NC(=O)[C@H](CCCNC(=N)N)NC(=O)[C@H](CC(C)C)NC(=O)[C@H](CCCNC(=N)N)NC(=O)[C@@H](NC(=O)[C@H](Cc2ccc(O)cc2)NC(=O)[C@H](CC(N)=O)NC(=O)[C@H](CC(=O)O)NC(=O)[C@@H](NC(=O)[C@H](Cc2ccccc2)NC(=O)[C@@H](NC(=O)[C@H](C)NC(=O)[C@H](CC(=O)O)NC(=O)[C@H](CO)NC(=O)[C@@H](N)Cc2cnc[nH]2)C(C)C)[C@@H](C)O)[C@@H](C)O)C(=O)N[C@@H](C)C(=O)N[C@@H](C(C)C)C(=O)N[C@@H](CCCCN)C(=O)N1)C(=O)N[C@@H](CC(C)C)C(=O)N[C@@H](CC(N)=O)C(=O)NCC(=O)N[C@@H](CCCCN)C(=O)O (H-HSDAVFTDNYTRLRKQ[X1]AVK[X1]YLNSILNGK-OH; staple (Z) 17-21)
pEC50 [1]: 9.48

H-HSDAVFTDNYTRERKQKAVKKYLNSILNGK-OH
pEC50 [1]: 8.18

H-HSDAVFTDNYTRLRKQIAVKEYLNKILNGK-OH
pEC50 [1]: 9.68

H-HSDAVFTDNYTRLRKQIAVKKYLNSILNGK-OH
pEC50 [1]: 9.85 | remaining at 0.25 h [2]: 0.3% | Papp A→B at 10 µM [3]: < 0.1 ×10⁻⁶ cm/s
